28 molecules from patent US9108944B2, “Androgen receptor modulators and uses thereof” (ARAGON PHARMACEUTICALS, INC., priority 2010, dated 2015) can be followed below.

Usually IC50 stands for the point on the concentration scale where inhibition reaches its midpoint. A lower IC50 goes with greater potency in that assay.

The experiment concerns the target T1, AR-VP16 (Homo sapiens, UniProt P10275).
T1 sequence (P10275 560-920 limits assumed): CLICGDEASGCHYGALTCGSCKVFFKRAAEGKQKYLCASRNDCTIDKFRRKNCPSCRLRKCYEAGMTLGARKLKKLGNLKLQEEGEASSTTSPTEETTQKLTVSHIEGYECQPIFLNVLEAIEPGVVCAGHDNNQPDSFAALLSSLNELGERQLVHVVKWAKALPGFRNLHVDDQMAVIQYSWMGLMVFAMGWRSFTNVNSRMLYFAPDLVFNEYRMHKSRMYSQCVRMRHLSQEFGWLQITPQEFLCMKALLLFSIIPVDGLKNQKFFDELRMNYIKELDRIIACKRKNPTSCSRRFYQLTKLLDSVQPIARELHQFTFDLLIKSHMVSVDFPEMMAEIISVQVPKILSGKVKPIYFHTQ
Briefly: AR-VP16 DNA Binding Assay, antagonist mode (HepG2 cells, 0.1 nM R1881). The format is cell-based. On the procedure: Cells were transiently transfected using Lipofectin (Life Technologies) according to the manufacturer's protocol. […] Transfected cells were incubated overnight then treated with ligand. […] For antagonist assays, the compounds were serially diluted and 50 μL of compound with RPMI supplemented with charcoal stripped serum plus methyltrienolone (R1881) were added to the cells. The final R1881 concentration used in the antagonist assays was 0.1 nM. Following 48 hour incubation the medium was removed and the cells were lysed in 40 μL of lysis buffer (25 mM Tris Phosphate, 2 mM CDTA, 10% Glycerol, 0.5% Triton X-100, 2 mM DTT).
The molecule `Cc1cc(N2C(=O)C3(CCC3)N(c3ccc(C4CCOCC4)cc3)C2=S)cnc1C#N` [Compound 112, 3-Methyl-5-(8-oxo-5-(4-(tetrahydro-2H-pyran-4-yl)phenyl)-6-thioxo-5,7-diazaspiro[3.4]octan-7-yl)picolinonitrile] displayed a concentration for half-maximal inhibition (IC50) of under 1 µM.

Regarding `COCCOc1ccc(N2C(=S)N(c3ccc(C#N)c4ncccc34)C(=O)C23CCC3)cc1F` [Compound 171, 5-(5-(3-Fluoro-4-(2-methoxyethoxy)phenyl)-8-oxo-6-thioxo-5,7-diazaspiro[3.4]octan-7-yl)quinoline-8-carbonitrile], the IC50 is under 1 µM.

With `CC(=O)N1CCN(CCOc2ccc(N3C(=S)N(c4cnc(C#N)c(C(F)(F)F)c4)C(=O)C34CCC4)cc2F)CC1` [Compound 202, 5-(5-(4-(2-(4-Acetylpiperazin-1-yl)ethoxy)-3-fluorophenyl)-8-oxo-6-thioxo-5,7-diazaspiro[3.4]octan-7-yl)-3-(trifluoromethyl)picolinonitrile], the IC50 was under 1 µM.

In turn, `N#Cc1ccc(N2C(=S)N(c3cnc(C#N)c(C(F)(F)F)c3)C(=O)C23CCC3)cc1F` [Compound 56, 5-(5-(4-Cyano-3-fluorophenyl)-8-oxo-6-thioxo-5,7-diazaspiro[3.4]octan-7-yl)-3-(trifluoromethyl)picolinonitrile] returned an IC50 of under 1 µM.

In turn, `N#Cc1ncc(N2C(=O)C3(CCC3)N(c3ccc(Oc4ccccn4)cc3)C2=S)cc1C(F)(F)F` [Compound 41, 5-(8-Oxo-5-(4-(pyridin-2-yloxy)phenyl)-6-thioxo-5,7-diazaspiro[3.4]octan-7-yl)-3-(trifluoromethyl)picolinonitrile] returned an IC50 of under 1 µM.

For `N#Cc1ncc(N2C(=O)C3(CCC3)N(c3ccc4ccncc4c3)C2=S)cc1C(F)(F)F` [Compound 52, 5-(5-(Isoquinolin-7-yl)-8-oxo-6-thioxo-5,7-diazaspiro[3.4]octan-7-yl)-3-(trifluoromethyl)picolinonitrile], the IC50 was under 1 µM.

Turning to `N#Cc1ncc(N2C(=O)C3(CCC3)N(c3ccc(OCCc4ccccn4)cc3F)C2=S)cc1C(F)(F)F` [Compound 183, 5-(5-(2-Fluoro-4-(2-(pyridin-2-yl)ethoxy)phenyl)-8-oxo-6-thioxo-5,7-diazaspiro[3.4]octan-7-yl)-3-(trifluoromethyl)picolinonitrile], the IC50 is under 1 µM.

For the molecule `CN1CCN(CCOc2ccc(N3C(=S)N(c4cnc(C#N)c(C(F)(F)F)c4)C(=O)C34CCC4)c(F)c2)CC1` [Compound 182, 5-(5-(2-Fluoro-4-(2-(4-methylpiperazin-1-yl)ethoxy)phenyl)-8-oxo-6-thioxo-5,7-diazaspiro[3.4]octan-7-yl)-3-(trifluoromethyl)picolinonitrile], the IC50 is under 1 µM.

`N#Cc1ncc(N2C(=O)C3(CCC3)N(c3cccnc3)C2=S)cc1C(F)(F)F` [Compound 19, 5-(8-Oxo-5-(pyridin-3-yl)-6-thioxo-5,7-diazaspiro[3.4]octan-7-yl)-3-(trifluoromethyl)picolinonitrile] had an IC50 of over 1 µM.

In turn, `Cc1ccc(N2C(=S)N(c3ccc(C#N)c4ccccc34)C(=O)C23CCC3)cc1` [Compound 94, 4-(8-Oxo-6-thioxo-5-(p-tolyl)-5,7-diazaspiro[3.4]octan-7-yl)-1-naphthonitrile] registered an IC50 of under 1 µM.

For `CNC(=O)c1ccc(N2C(=S)N(c3cnc(C#N)c(C(F)(F)F)c3)C(=O)C2(C)C)cc1F` [Compound 43, 4-(3-(6-Cyano-5-(trifluoromethyl)pyridin-3-yl)-5,5-dimethyl-4-oxo-2-thioxoimidazolidin-1-yl)-2-fluoro-N-methylbenzamide], the IC50 was under 1 µM.

Turning to `N#Cc1ccc(N2C(=S)N(c3cnc(C#N)c(C(F)(F)F)c3)C(=O)C23CCC3)c(F)c1` [Compound 70, 5-(5-(4-Cyano-2-fluorophenyl)-8-oxo-6-thioxo-5,7-diazaspiro[3.4]octan-7-yl)-3-(trifluoromethyl)picolinonitrile], the IC50 is under 1 µM.

As to `N#Cc1ncc(N2C(=O)C3(CCC3)N(c3ccc(C(=O)NC4CCCC4)c(F)c3)C2=S)cc1C(F)(F)F` [Compound 267, 4-(7-(6-Cyano-5-(trifluoromethyl)pyridin-3-yl)-8-oxo-6-thioxo-5,7-diazaspiro[3.4]octan-5-yl)-N-cyclopentyl-2-fluorobenzamide], the IC50 was under 1 µM.

Take `N#Cc1ncc(N2C(=O)C3(CCC3)N(c3ccc(OCCc4cnccn4)c(F)c3)C2=S)cc1C(F)(F)F` [Compound 176, 5-(5-(3-Fluoro-4-(2-(pyrazin-2-yl)ethoxy)phenyl)-8-oxo-6-thioxo-5,7-diazaspiro[3.4]octan-7-yl)-3-(trifluoromethyl)picolinonitrile]: the IC50 is under 1 µM.

For the molecule `CC1(C)C(=O)N(c2cnc(C#N)c(C(F)(F)F)c2)C(=S)N1c1ccc(O)cc1` [Compound 100, 5-(3-(4-Hydroxyphenyl)-4,4-dimethyl-5-oxo-2-thioxoimidazolidin-1-yl)-3-(trifluoromethyl)picolinonitrile], the IC50 was under 1 µM.

`N#Cc1ncc(N2C(=O)C3(CCC3)N(c3c(F)ccc(F)c3F)C2=S)cc1C(F)(F)F` [Compound 75, 5-(8-Oxo-6-thioxo-5-(2,3,6-trifluorophenyl)-5,7-diazaspiro[3.4]octan-7-yl)-3-(trifluoromethyl)picolinonitrile]: the IC50 is under 1 µM.

`N#Cc1ncc(N2C(=O)C3(CCC3)N(c3ccc(Oc4ccncn4)cc3)C2=S)cc1C(F)(F)F` [Compound 208, 5-(8-Oxo-5-(4-(pyrimidin-4-yloxy)phenyl)-6-thioxo-5,7-diazaspiro[3.4]octan-7-yl)-3-(trifluoromethyl)picolinonitrile]: the concentration for half-maximal inhibition (IC50) was under 1 µM.

With `CN1CCC(Oc2ccc(N3C(=S)N(c4cnc(C#N)c(C(F)(F)F)c4)C(=O)C34CCC4)cc2F)CC1` [Compound 193, 5-(5-(3-Fluoro-4-((1-methylpiperidin-4-yl)oxy)phenyl)-8-oxo-6-thioxo-5,7-diazaspiro[3.4]octan-7-yl)-3-(trifluoromethyl)picolinonitrile], the IC50 is under 1 µM.

As for `N#Cc1ncc(N2C(=O)C3(CCC3)N(c3ccc(C(=O)NCCCN4CCOCC4)c(F)c3)C2=S)cc1C(F)(F)F` [Compound 268, 4-(7-(6-Cyano-5-(trifluoromethyl)pyridin-3-yl)-8-oxo-6-thioxo-5,7-diazaspiro[3.4]octan-5-yl)-2-fluoro-N-(3-morpholinopropyl)benzamide], the IC50 was under 1 µM.

`Cc1cc(N2C(=O)C3(CCC3)N(c3ccc(Oc4ccncn4)cc3)C2=S)cnc1C#N` [Compound 209, 3-Methyl-5-(8-oxo-5-(4-(pyrimidin-4-yloxy)phenyl)-6-thioxo-5,7-diazaspiro[3.4]octan-7-yl)picolinonitrile] came in with an IC50 of under 1 µM.

Molecule `Cc1cc(N2C(=O)C3(CCC3)N(c3ccc(-c4cncnc4)cc3)C2=S)cnc1C#N` [Compound 103, 3-Methyl-5-(8-oxo-5-(4-(pyrimidin-5-yl)phenyl)-6-thioxo-5,7-diazaspiro[3.4]octan-7-yl)picolinonitrile] displayed an IC50 of under 1 µM.

In the case of `N#Cc1ncc(N2C(=O)C3(CCC3)N(c3ccc(OCCN4CCNCC4)c(F)c3)C2=S)cc1C(F)(F)F` [Compound 174, 5-(5-(3-fluoro-4-(2-(piperazin-1-yl)ethoxy)phenyl)-8-oxo-6-thioxo-5,7-diazaspiro[3.4]octan-7-yl)-3-(trifluoromethyl)picolinonitrile], the IC50 was under 1 µM.

The molecule `N#Cc1ncc(N2C(=O)C3(CCC3)N(c3ccc(OCCCc4cccnc4)c(F)c3)C2=S)cc1C(F)(F)F` [Compound 145, 5-(5-(3-Fluoro-4-(3-(pyridin-3-yl)propoxy)phenyl)-8-oxo-6-thioxo-5,7-diazaspiro[3.4]octan-7-yl)-3-(trifluoromethyl)picolinonitrile] came in with an IC50 of under 1 µM.

Consider `N#Cc1ncc(N2C(=O)C3(CCC3)N(c3ccc(OCCc4ccncc4)c(F)c3)C2=S)cc1C(F)(F)F` [Compound 142, 5-(5-(3-Fluoro-4-(2-(pyridin-4-yl)ethoxy)phenyl)-8-oxo-6-thioxo-5,7-diazaspiro[3.4]octan-7-yl)-3-(trifluoromethyl)picolinonitrile], for which the IC50 was under 1 µM.

Take `N#Cc1ncc(N2C(=O)C3(CCC3)N(c3ccc(C(=O)NCc4ccccc4Cl)c(F)c3)C2=S)cc1C(F)(F)F` [Compound 287, N-(2-Chlorobenzyl)-4-(7-(6-cyano-5-(trifluoromethyl)pyridin-3-yl)-8-oxo-6-thioxo-5,7-diazaspiro[3.4]octan-5-yl)-2-fluorobenzamide]: the IC50 is under 1 µM.

With `Cc1cncc(-c2ccc(N3C(=S)N(c4cnc(C#N)c(C)c4)C(=O)C34CCC4)cc2)c1` [Compound 98, 3-Methyl-5-(5-(4-(5-methylpyridin-3-yl)phenyl)-8-oxo-6-thioxo-5,7-diazaspiro[3.4]octan-7-yl)picolinonitrile], the IC50 is under 1 µM.

Molecule `N#Cc1ncc(N2C(=O)C3(CCC3)N(c3ccc4ccccc4c3)C2=S)cc1C(F)(F)F` [Compound 9, 5-(5-(Naphthalen-2-yl)-8-oxo-6-thioxo-5,7-diazaspiro[3.4]octan-7-yl)-3-(trifluoromethyl)picolinonitrile] yielded an IC50 of under 1 µM.

Turning to `Cc1ccc(N2C(=S)N(c3ccc(C#N)n4nccc34)C(=O)C23CCC3)cc1` [Compound 82, 4-(8-Oxo-6-thioxo-5-(p-tolyl)-5,7-diazaspiro[3.4]octan-7-yl)pyrazolo[1,5-a]pyridine-7-carbonitrile], the IC50 was under 1 µM.
